Results on 22 compounds are retold here after patent US20080090278A1, “METHOD FOR ENHANCING STABILITY OF A COMPOSITION COMPRISING SOLUBLE GLUCOSE DEHYDROGENASE (GDH)” (TOYO BOSEKI KABUSHIKI KAISHA, priority 2006, published 2008).

In series [1] the test system is recombinant FAD-GDH (rAT-FAD-GDH) derived from Aspergillus terreus. As to the kind of experiment: Thermal stabilization effect of stabilizing agents on rAT-FAD-GDH in solution (Example 9). To be noted: for Residual activity ratio (%) / GLD activity value (U/ml) 50° C., 15 min: Table 10, buffer 50 mM K-PB, stabilizer at each final concentration described in Table 1; for Residual activity ratio (%): 50° C., 15 min versus 4° C.; for thermal stabilization effect on FAD-GDH (in words): rAT-FAD-GDH, 50° C. for 15 minutes, Example 9. The class given is physicochemical. The protocol:
(§1) The reaction reagent (3 mL) is preliminarily heated at 37° C. for 5 minutes. The GDH solution (0.1 mL) is added and gently mixed, subsequently the change of absorbance at 600 nm is recorded for 5 minutes using the spectrophotometer controlled to 37° C. using water as the control, and the change of absorbance per one minute (ΔODTEST) is calculated from the linear portion of the record. The solvent in which GDH will be dissolved in place of the blinded GDH solution is added to the reagent mixture, and the change of absorbance (ΔODBLANK) per one minute is measured. The GDH activity is calculated from these values according to the following formula. One unit (U) in the GDH activity is defined as the amount of the enzyme which reduces […] DCPIP for one minute in the presence of 200 mM D-glucose.
Two tubes in which each stabilizing agent described in Table 1 had been added at each final concentration to 0.9 mL of this enzyme solution to make the total volume 1.0 mL were prepared.
In two tubes, one tube was stored at 4° C. and another tube was treated at 50° C. for 15 minutes. Then, the FAD-GDH activity in each tube was measured. The enzyme activity in the tube stored at 4° C. was made 100, and comparing with it, the activity value after being treated at 50° C. for 15 minutes was calculated as the residual activity ratio (%).

The subject of series [2] is recombinant FAD-GDH (rAO-FAD-GDH) derived from Aspergillus oryzae. As to the kind of experiment: Thermal stabilization effect of stabilizing agents on rAO-FAD-GDH in solution (Examples 3-6). The class given is physicochemical. To be noted: for thermal stabilization effect on FAD-GDH (in words): 50° C. for 15 minutes, Example 3. As for the experimental part: Enhancement of the thermal stability referred to herein means increasing of a residual ratio (%) of the GDH enzyme kept after giving the treatment with heat at a certain temperature for a certain time period to the composition comprising the GDH enzyme. In the present invention, the activity in the sample stored at 4° C. which is nearly completely kept is made 100%, this is compared with the activity in the GDH solution after giving the treatment with heat at a certain-temperature for a certain time period, and the residual ratio of the enzyme is calculated.
In the method for measuring the activity described in the method for measuring the GDH enzyme activity described later, an activity value (a) of GDH in the solution stored at 4° C. and an activity value (b) of GDH after giving the treatment with heat at a certain temperature for a certain time period were measured, a relative value[(b)/(a)×100] when the activity value (a) was made 100 was calculated. This relative value was made the residual ratio (%). Comparing the presence with the absence of the added compound, when the residual ratio was increased by the addition of the compound, it was determined that the thermal stability was enhanced.
In the present invention, the activity of FAD-dependent GDH is measured as follows.
The reaction-reagent is made by mixing 15.6 mL of the PIPES buffer, 0.2 mL of the DCPIP solution and 4 mL of the D-glucose solution.
as §1, with “D-glucose. Activity (U/mL)=[−(ΔODTEST−ΔODBLANK)×3.0×dilution scale]/(16.3×0.1×1.0) In the above formula, 3.0 represents a liquid amount (mL) of the reaction reagent+the enzyme solution, 16.3 represents a millimolar molecular absorbance coefficient (cm^2/μmol) in the condition for measuring this enzyme, 0.1 represents the liquid amount of the enzyme solution (mL) and 1.0 represents a light path length (cm) of the cell.” for “D-glucose.”
The study was performed in accordance with the method for measuring the FAD-GDH activity in Test Example 1 described above.
First, 50 mL of an enzyme solution obtained by dissolving the recombinant FAD-GDH (rAO-FAD-GDH)-derived from Aspergillus oryzae obtained in Example 1 at about 2 U/mL in an enzyme dilution solution (50 mM potassium phosphate buffer, pH 5.5, 0.1% Triton X-100) was prepared. Two tubes in which each stabilizing agent described in Table 1 had been added at each final concentration to 0.9 mL of this enzyme solution to make the total volume 1.0 mL were prepared.
In two tubes, one tube was stored at […] and another tube was treated at 50° C. for 15 minutes. Then, the FAD-GDH activity in each tube was measured. The enzyme activity in the tube stored at 4° C. was made 100, and comparing with it, the activity value after being treated at 50° C. for 15 minutes was calculated as the residual activity ratio (%).
The method was in accordance with Example 3 described above.
The methods were in accordance with Example 3 above.

The mark [3] stands for this setting: stabilizer final concentration 1%, rAO-FAD-GDH about 2 U/mL, 50 mM potassium phosphate buffer pH 5.5, 0.1% Triton X-100, 4° C. sample = 100.
[4] abbreviates: stabilizer final concentration 0.25%, rAO-FAD-GDH, pH 5.5.
Setting [5] is: stabilizer final concentration 0.10%, rAO-FAD-GDH, pH 5.5.

On to `N[C@@H](CC(=O)O)C(=O)O` [L-aspartic acid], for which, in series [1], the “Residual activity ratio (%)” value amounted to 0.2% and the “GLD activity value (U/ml) 50° C., 15 min” value is on record as 0.005 U/ml. The “Residual activity ratio (%) after treatment at 50° C., 15 min” value (“Residual activity ratio (%) … 15 min” below) in series [2] (setting [3]) is 12.2%.

On to `NC(=O)CC[C@H](N)C(=O)O` [L-glutamine], for which, in series [1], the “Residual activity ratio (%)” value came to 1.7% and the “GLD activity value (U/ml) 50° C., 15 min” value turned out to be 0.046 U/ml. Besides, the “Residual activity ratio (%) … 15 min” value in series [2] (setting [4]) came to 22.6%.

`N[C@@H](Cc1c[nH]cn1)C(=O)O` [L-histidine]: in series [1], the “Residual activity ratio (%)” value amounted to 0.5% and the “GLD activity value (U/ml) 50° C., 15 min” value came to 0.015 U/ml. In series [2] (setting [4]), the “Residual activity ratio (%) … 15 min” value turned out to be 11.4%.

`CC(C)C[C@H](N)C(=O)O` [L-leucine]: in series [1], the “Residual activity ratio (%)” value is 1.4% and the “GLD activity value (U/ml) 50° C., 15 min” value is listed as 0.038 U/ml. The “Residual activity ratio (%) … 15 min” value in series [2] (setting [5]) is on record as 22.2%.

Regarding `Cl.NCCCC[C@H](N)C(=O)O` [L-lysine hydrochloride], in series [1], the “Residual activity ratio (%)” value was found to be 3.5%; the “GLD activity value (U/ml) 50° C., 15 min” value came out at 0.093 U/ml; the “thermal stabilization effect on FAD-GDH (in words)” value (from here on “thermal stabilization effect”) is reported as “high effect”. Further, the “thermal stabilization effect” value in series [2] (rAO-FAD-GDH) is given as “high effect”. The “Residual activity ratio (%) … 15 min” value in series [2] (setting [3]) was 23.4%.

`N[C@@H](Cc1ccccc1)C(=O)O` [L-phenylalanine]: in series [1], the “Residual activity ratio (%)” value was 1.2% and the “GLD activity value (U/ml) 50° C., 15 min” value amounted to 0.031 U/ml. For the same compound, the “Residual activity ratio (%) … 15 min” value in series [2] (stabilizer final concentration 0.20%, rAO-FAD-GDH, pH 5.5) is recorded as 22.3%.

Regarding `N[C@@H](Cc1c[nH]c2ccccc12)C(=O)O` [L-triptophan], in series [1], the “Residual activity ratio (%)” value is recorded as 1.3% and the “GLD activity value (U/ml) 50° C., 15 min” value was found to be 0.034 U/ml. Besides, the “Residual activity ratio (%) … 15 min” value in series [2] (setting [5]) stood at 24.3%.

As to `CC(C)[C@H](N)C(=O)O` [L-valine], in series [1], the “Residual activity ratio (%)” value stood at 1.6% and the “GLD activity value (U/ml) 50° C., 15 min” value turned out to be 0.043 U/ml. Moreover, the “Residual activity ratio (%) … 15 min” value in series [2] (stabilizer final concentration 0.50%, rAO-FAD-GDH, pH 5.5) came out at 25.5%.

Turning to `O=C(O)CC(=O)O` [Malonic acid], the “thermal stabilization effect” value in series [1] and in series [2] (rAO-FAD-GDH) was “high effect” each time.

For `CO[C@H]1O[C@H](CO)[C@@H](O)[C@H](O)[C@H]1O` [Methyl-a-D-glucoside], in series [1], the “Residual activity ratio (%)” value was determined as 9.4%; the “GLD activity value (U/ml) 50° C., 15 min” value is recorded as 0.267 U/ml; the “thermal stabilization effect” value is recorded as “high effect”. In addition, the “thermal stabilization effect” value in series [2] (rAO-FAD-GDH) is listed as “high effect”. Besides, in series [2] (setting [3]), the “Residual activity ratio (%) … 15 min” value stood at 53.6%.

On to `CNCC(=O)O` [Sarcosine], for which, in series [1], the “Residual activity ratio (%)” value was 3.0%; the “GLD activity value (U/ml) 50° C., 15 min” value is 0.081 U/ml; the “thermal stabilization effect” value is given as “high effect”. The “thermal stabilization effect” value in series [2] (rAO-FAD-GDH) is listed as “high effect”. In addition, the “Residual activity ratio (%) … 15 min” value in series [2] (setting [3]) is 25.2%.

Turning to `N[C@@H](CC(=O)[O-])C(=O)[O-].[Na+].[Na+]` [Sodium L-aspartate], in series [1], the “Residual activity ratio (%)” value came to 3.7%; the “GLD activity value (U/ml) 50° C., 15 min” value was determined as 0.102 U/ml; the “thermal stabilization effect” value is on record as “high effect”. For the same compound, the “thermal stabilization effect” value in series [2] (rAO-FAD-GDH) was “high effect”. Moreover, in series [2] (setting [3]), the “Residual activity ratio (%) … 15 min” value was 23.0%.

On to `[Cl-].[Na+]` [Sodium chloride], for which the “thermal stabilization effect” value in series [1] and in series [2] (rAO-FAD-GDH) was “high effect” each time.

As to `O=S(=O)([O-])[O-].[Na+].[Na+]` [Sodium sulfate], the “thermal stabilization effect” value in series [1] and in series [2] (rAO-FAD-GDH) was “high effect” each time.

For the compound `O=C(O)CCC(=O)O` [Succinic acid], the “thermal stabilization effect” value in series [1] and in series [2] (rAO-FAD-GDH) was “high effect” in each case.

On to `OC[C@H]1O[C@@](CO)(O[C@H]2O[C@H](CO)[C@@H](O)[C@H](O)[C@H]2O)[C@@H](O)[C@@H]1O` [Sucrose], for which, in series [1], the “Residual activity ratio (%)” value is given as 2.1%; the “GLD activity value (U/ml) 50° C., 15 min” value is recorded as 0.058 U/ml; the “thermal stabilization effect” value was “high effect”. Also, in series [2] (rAO-FAD-GDH), the “thermal stabilization effect” value is reported as “high effect”. In addition, in series [2] (setting [3]), the “Residual activity ratio (%) … 15 min” value worked out at 44.1%.

With `NCCS(=O)(=O)O` [Taurine], in series [1], the “Residual activity ratio (%)” value was 3.2%; the “GLD activity value (U/ml) 50° C., 15 min” value came out at 0.081 U/ml; the “thermal stabilization effect” value was “high effect”. Besides, the “thermal stabilization effect” value in series [2] (rAO-FAD-GDH) is “high effect”. The “Residual activity ratio (%) … 15 min” value in series [2] (setting [3]) was found to be 23.8%.

For the compound `O=C([O-])CC(O)(CC(=O)[O-])C(=O)[O-].[Na+].[Na+].[Na+]` [Trisodium citrate], the “thermal stabilization effect” value in series [1] and in series [2] (rAO-FAD-GDH) was “high effect” in each case.

Take `OC[C@H]1O[C@H](OCC2O[C@@H](O)[C@H](O)[C@@H](O)[C@@H]2O)[C@H](O)[C@@H](O)[C@H]1O` (stereo partly drawn) [a-D-(+)-melibiose]: in series [1], the “Residual activity ratio (%)” value was determined as 7.3%; the “GLD activity value (U/ml) 50° C., 15 min” value was 0.197 U/ml; the “thermal stabilization effect” value is given as “high effect”. In addition, the “thermal stabilization effect” value in series [2] (rAO-FAD-GDH) was “high effect”. Also, the “Residual activity ratio (%) … 15 min” value in series [2] (setting [3]) is 59.0%.

In the case of `OC[C@H]1O[C@@H]2O[C@H]3[C@H](O)[C@@H](O)[C@@H](O[C@H]4[C@H](O)[C@@H](O)[C@@H](O[C@H]5[C@H](O)[C@@H](O)[C@@H](O[C@H]6[C@H](O)[C@@H](O)[C@@H](O[C@H]7[C@H](O)[C@@H](O)[C@@H](O[C@H]1[C@H](O)[C@H]2O)O[C@@H]7CO)O[C@@H]6CO)O[C@@H]5CO)O[C@@H]4CO)O[C@@H]3CO` [a-cyclodextrin], in series [1], the “Residual activity ratio (%)” value was 1.5% and the “GLD activity value (U/ml) 50° C., 15 min” value is given as 0.044 U/ml. In addition, the “Residual activity ratio (%) … 15 min” value in series [2] (setting [3]) stood at 44.1%.

Turning to `N[C@@H](Cc1ccccc1)C(=O)O` [phenylalanine], the “thermal stabilization effect” value in series [1] and in series [2] (rAO-FAD-GDH) was “high effect” each time.

Turning to `O=C(O)[C@@H]1CCCN1` [proline], the “thermal stabilization effect” value in series [1] and in series [2] (rAO-FAD-GDH) was “high effect” throughout.
